Measured values published in ChEMBL document CHEMBL5537178, “Discovery of TP0628103: A Highly Potent and Selective MMP-7 Inhibitor with Reduced OATP-Mediated Clearance Designed by Shifting Isoelectric Points” (J Med Chem, 2024).

Legend:
CYP2B6 [1] = target: T1, CYP2B6 (Homo sapiens, UniProt P20813); assay: Inhibition of CYP2B6 in human liver microsomes at 10 uM by LC-MS/MS analysis relative to control; type: ADME, Microsome
T1 sequence (P20813 whole entry): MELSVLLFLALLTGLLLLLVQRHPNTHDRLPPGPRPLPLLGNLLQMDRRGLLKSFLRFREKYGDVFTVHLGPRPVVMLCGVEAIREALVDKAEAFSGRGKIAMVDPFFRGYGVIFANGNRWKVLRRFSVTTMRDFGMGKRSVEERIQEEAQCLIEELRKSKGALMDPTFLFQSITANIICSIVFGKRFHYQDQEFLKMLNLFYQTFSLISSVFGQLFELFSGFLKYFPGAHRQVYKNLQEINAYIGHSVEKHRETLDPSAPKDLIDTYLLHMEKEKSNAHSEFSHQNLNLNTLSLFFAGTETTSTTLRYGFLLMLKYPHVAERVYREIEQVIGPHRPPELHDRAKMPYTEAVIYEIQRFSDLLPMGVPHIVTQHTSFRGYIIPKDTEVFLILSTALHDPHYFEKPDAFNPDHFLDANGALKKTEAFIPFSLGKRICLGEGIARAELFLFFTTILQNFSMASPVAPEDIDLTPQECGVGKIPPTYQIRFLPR

[2] = Clearance in Sprague-Dawley rat at 0.5 mg/kg, iv; type: ADME, organism-based; conditions: in vivo
[3] = Inhibition of recombinant mouse MMP1 assessed as enzyme activity by measuring fluorescence using fluorogenic peptide substrate
CYP3A = CYP3A (Homo sapiens, UniProt P08684+P20815+P24462+Q9HB55); assay: Inhibition of CYP3A in human liver microsomes using testosterone as substrate at 10 uM by LC-MS/MS analysis relative to control; type: ADME, Microsome; conditions: probe testosterone
[4] = Plasma unbound drug concentration at steady state in UUO surgery-induced renal fibrosis C57BL/6J mouse model at 1 mg/kg/day, sc administered with mini osmotic pump measured after 3 days; type: ADME, organism-based; conditions: in vivo, 72 h, time 3 day
CYP1A2 = target: T2, CYP1A2 (Homo sapiens, UniProt P05177); assay: Inhibition of CYP1A2 in human liver microsomes at 10 uM by LC-MS/MS analysis relative to control; type: ADME, Microsome
T2 sequence (P05177 whole entry): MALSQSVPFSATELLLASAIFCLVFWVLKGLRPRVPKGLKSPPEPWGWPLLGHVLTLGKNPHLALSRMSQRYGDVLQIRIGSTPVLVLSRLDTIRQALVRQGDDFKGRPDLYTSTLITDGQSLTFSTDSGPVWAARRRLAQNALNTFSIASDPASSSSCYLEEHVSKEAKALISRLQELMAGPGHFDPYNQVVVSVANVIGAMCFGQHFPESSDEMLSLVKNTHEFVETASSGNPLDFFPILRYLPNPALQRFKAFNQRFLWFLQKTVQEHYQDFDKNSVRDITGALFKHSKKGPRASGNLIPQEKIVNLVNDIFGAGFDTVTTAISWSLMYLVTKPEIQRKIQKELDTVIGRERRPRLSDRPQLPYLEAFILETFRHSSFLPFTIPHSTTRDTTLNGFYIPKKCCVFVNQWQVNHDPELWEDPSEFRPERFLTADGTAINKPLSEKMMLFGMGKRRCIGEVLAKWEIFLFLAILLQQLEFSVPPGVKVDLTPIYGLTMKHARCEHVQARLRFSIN

CYP2C19 = CYP2C19 (Homo sapiens, UniProt P33261); assay: Time dependent inhibition of CYP2C19 in human liver microsomes at 10 uM by LC-MS/MS analysis relative to control; type: ADME, Microsome; conditions: read-out: TDI
Collagenase 3 = Collagenase 3 (Homo sapiens, UniProt P45452); assay: Inhibition of recombinant human MMP13 assessed as enzyme activity by measuring fluorescence using fluorogenic peptide substrate
[5] = Chemical stability of the compound in pH 4 aqueous solution assessed as degradation by measuring residual rate incubated for 24 hrs at 65 degC by HPLC analysis; type: physicochemical; conditions: read-out: Activity
CYP2B6 [6] = target: T1, CYP2B6; assay: Time dependent inhibition of CYP2B6 in human liver microsomes at 10 uM by LC-MS/MS analysis relative to control; type: ADME, Microsome; conditions: read-out: TDI
CYP2D6 [7] = target: T3, CYP2D6 (Homo sapiens, UniProt P10635); assay: Inhibition of CYP2D6 in human liver microsomes at 10 uM by LC-MS/MS analysis relative to control; type: ADME, Microsome
CYP2C9 = CYP2C9 (Homo sapiens, UniProt P11712); assay: Inhibition of CYP2C9 in human liver microsomes at 10 uM by LC-MS/MS analysis relative to control; type: ADME, Microsome
Stromelysin-1 = Stromelysin-1 (Homo sapiens, UniProt P08254); assay: Inhibition of recombinant human MMP3 assessed as enzyme activity by measuring fluorescence using fluorogenic peptide substrate
[8] = Volume of distribution at steady state in cynomolgus monkey at 1 mg/kg, iv; type: ADME, organism-based, Macaca fascicularis; conditions: in vivo, read-out: Vdss
CYP2D6 [9] = target: T3, CYP2D6; assay: Time dependent inhibition of CYP2D6 in human liver microsomes at 10 uM by LC-MS/MS analysis relative to control; type: ADME, Microsome; conditions: read-out: TDI
[10] = Fraction unbound in rat; type: ADME
Interstitial collagenase = target: T4, Interstitial collagenase (Homo sapiens, UniProt P03956); assay: Inhibition of recombinant human MMP1 assessed as enzyme activity by measuring fluorescence using fluorogenic peptide substrate
T4 sequence (P03956 whole entry): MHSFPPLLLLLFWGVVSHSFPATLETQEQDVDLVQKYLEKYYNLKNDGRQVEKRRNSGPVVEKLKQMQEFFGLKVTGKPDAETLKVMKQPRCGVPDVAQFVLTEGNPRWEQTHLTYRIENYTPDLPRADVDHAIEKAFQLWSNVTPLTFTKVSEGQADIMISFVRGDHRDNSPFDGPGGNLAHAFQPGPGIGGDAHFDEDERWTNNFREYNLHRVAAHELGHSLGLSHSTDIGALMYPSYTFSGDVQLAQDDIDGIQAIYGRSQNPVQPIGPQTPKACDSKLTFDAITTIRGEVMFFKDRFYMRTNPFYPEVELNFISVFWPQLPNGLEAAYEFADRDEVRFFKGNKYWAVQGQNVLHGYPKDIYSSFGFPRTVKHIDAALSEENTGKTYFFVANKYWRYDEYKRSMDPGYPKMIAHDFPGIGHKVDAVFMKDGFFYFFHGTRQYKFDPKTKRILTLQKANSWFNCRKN

T3 sequence (P10635 whole entry): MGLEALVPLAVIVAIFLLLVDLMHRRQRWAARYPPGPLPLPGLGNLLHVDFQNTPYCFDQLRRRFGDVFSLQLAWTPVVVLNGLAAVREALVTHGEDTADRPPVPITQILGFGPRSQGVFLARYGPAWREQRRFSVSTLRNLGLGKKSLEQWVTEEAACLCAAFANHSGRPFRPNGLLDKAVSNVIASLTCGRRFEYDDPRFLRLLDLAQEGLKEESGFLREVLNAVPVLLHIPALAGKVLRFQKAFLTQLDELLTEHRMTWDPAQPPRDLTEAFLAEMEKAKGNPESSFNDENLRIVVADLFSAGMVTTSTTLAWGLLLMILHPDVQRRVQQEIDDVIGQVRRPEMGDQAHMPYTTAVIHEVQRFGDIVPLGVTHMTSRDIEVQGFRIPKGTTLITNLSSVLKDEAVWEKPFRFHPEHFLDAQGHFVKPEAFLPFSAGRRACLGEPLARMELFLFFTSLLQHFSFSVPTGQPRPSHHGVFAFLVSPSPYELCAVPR
Sequence of CYP2C19 (P33261 whole entry): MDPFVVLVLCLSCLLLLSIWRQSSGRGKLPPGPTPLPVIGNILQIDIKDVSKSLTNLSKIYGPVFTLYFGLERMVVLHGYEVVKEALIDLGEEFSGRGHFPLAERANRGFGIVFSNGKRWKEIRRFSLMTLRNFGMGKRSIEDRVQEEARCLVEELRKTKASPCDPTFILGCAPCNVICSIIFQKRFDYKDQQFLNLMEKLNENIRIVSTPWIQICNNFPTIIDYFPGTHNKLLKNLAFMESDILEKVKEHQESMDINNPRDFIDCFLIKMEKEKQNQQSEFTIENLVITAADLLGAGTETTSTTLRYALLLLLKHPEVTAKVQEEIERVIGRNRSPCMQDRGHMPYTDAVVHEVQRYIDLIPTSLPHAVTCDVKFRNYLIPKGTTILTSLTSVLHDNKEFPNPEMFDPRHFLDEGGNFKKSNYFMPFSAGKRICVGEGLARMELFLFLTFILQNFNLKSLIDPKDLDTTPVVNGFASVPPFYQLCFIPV
Sequence of CYP2C9 (P11712 whole entry): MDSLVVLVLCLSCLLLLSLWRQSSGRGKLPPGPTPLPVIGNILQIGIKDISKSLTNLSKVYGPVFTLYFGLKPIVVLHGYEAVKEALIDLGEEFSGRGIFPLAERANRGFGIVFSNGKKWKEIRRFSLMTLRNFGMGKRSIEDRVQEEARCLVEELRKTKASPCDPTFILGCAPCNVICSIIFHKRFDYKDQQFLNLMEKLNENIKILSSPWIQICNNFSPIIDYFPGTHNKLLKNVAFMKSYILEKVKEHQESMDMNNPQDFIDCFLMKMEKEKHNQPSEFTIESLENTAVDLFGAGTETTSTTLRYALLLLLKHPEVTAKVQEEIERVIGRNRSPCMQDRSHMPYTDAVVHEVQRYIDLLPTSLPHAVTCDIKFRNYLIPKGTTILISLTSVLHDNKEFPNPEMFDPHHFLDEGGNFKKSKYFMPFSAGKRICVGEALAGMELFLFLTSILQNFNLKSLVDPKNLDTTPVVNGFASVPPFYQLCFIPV
Sequence of Stromelysin-1 (P08254 whole entry): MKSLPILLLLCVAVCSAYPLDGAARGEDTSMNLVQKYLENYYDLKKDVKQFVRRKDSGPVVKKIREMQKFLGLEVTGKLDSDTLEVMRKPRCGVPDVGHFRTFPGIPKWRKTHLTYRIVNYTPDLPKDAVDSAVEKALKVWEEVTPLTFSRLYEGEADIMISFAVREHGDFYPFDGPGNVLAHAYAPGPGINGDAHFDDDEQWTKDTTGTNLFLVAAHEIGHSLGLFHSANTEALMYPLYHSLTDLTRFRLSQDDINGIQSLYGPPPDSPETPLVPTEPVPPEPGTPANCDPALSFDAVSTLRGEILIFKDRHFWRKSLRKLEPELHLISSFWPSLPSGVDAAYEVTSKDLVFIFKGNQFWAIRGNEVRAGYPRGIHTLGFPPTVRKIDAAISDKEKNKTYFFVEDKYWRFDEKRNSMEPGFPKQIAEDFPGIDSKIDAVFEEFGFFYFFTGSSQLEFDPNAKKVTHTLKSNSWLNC

inhibition at 10 µM (CYP2B6 [1]): -6.6%
clearance [2]: 3.52 mL/min/kg
IC50 [3]: 0.0041 µM
inhibition at 10 µM (CYP3A): 2.5%
Cp(f) [4]: 15.6 nM
inhibition at 10 µM (CYP1A2): 3.2%
inhibition at 10 µM (CYP2C19): 4.8%
IC50 (Collagenase 3): > 10 µM
remaining at 24 h [5]: 101%
inhibition at 10 µM (CYP2B6 [6]): -4.8%
inhibition at 10 µM (CYP2D6 [7]): 6.4%
inhibition at 10 µM (CYP2C9): 0.5%
IC50 (Stromelysin-1): > 10 µM
Vd [8]: 0.145 L/kg
inhibition at 10 µM (CYP2D6 [9]): -2.9%
fraction unbound [10]: 0.178
IC50 (Interstitial collagenase): > 10 µM
Compound: CC(C)(C)[C@H](NC(=O)[C@H](Cc1ccncc1)NC(=O)CNC(=O)CC[C@H](NS(=O)(=O)c1ccc(Cl)c(C(F)(F)F)c1)C(=O)O)C(=O)Nc1ccc(C(=O)N2CCC(C(=O)N[C@H](CCCCN)C(=O)N3CC[C@H](N)C3)CC2)cc1
